# Test results reported in PMC11129182, “Development of Inhibitors, Probes, and PROTAC Provides a Complete Toolbox to Study PARK7 in the Living Cell” (Journal of Medicinal Chemistry, 2024).
# Where two headings read alike, the source gives them in different places.
# Tests used:
# PARK7 [1] = molecular target: T1, PARK7 (Homo sapiens, UniProt Q99497); experiment: High-throughput screen of the crude compound library, PARK7 fluorescence polarization (FP) assay with FP reagent JYQ-107; type: biochemical; conditions: for inhibition at 1.25 µM: crude compound library, read-out: HTS FP assay %Inhibition (1.25 µM)
# T1 sequence (Q99497 1-189): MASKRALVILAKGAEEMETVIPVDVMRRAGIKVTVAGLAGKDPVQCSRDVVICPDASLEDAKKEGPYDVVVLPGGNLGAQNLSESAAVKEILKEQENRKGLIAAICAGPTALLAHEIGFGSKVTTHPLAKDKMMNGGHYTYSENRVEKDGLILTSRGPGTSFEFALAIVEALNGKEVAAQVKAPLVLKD
# PARK7 [2] = molecular target: T1, PARK7; experiment: Hit validation and pure-compound testing in the PARK7 FP assay with JYQ-107; type: biochemical; conditions: for inhibition at 0.25 µM: read-out: % Inhibition 0.25 µM
# [3] = crude compounds, 0.5 µM, read-out: % Inhibition 0.5 µM
Molecule,inhibition at 1.25 µM (PARK7 [1]),other results
N#CN1CC[C@@H](C(=O)Nc2nc3c(s2)CN(C(=O)c2cn(C4CCC4)nn2)CC3)C1 [Compound 30],89.2%,"inhibition at 0.25 µM (PARK7 [2]; crude compounds, 0.25 µM): 52.3%; inhibition at 0.5 µM (PARK7 [2]; [3]): 75.7%; inhibition at 1 µM (PARK7 [2]; crude compounds, 1 µM): 93.6%"
N#CN1CC[C@@H](C(=O)Nc2nc3c(s2)CN(C(=O)c2cn(CCc4ccccc4)nn2)CC3)C1 [Compound 76],91.3%,"inhibition at 0.25 µM (PARK7 [2]; crude compounds, 0.25 µM): 54.4%; inhibition at 0.5 µM (PARK7 [2]; [3]): 78%; inhibition at 1 µM (PARK7 [2]; crude compounds, 1 µM): 92.1%"
N#CN1CC[C@@H](C(=O)Nc2nc3c(s2)CN(C(=O)c2cc(-n4ccnc4)ccn2)CC3)C1 [Compound 22],90.7%,"inhibition at 0.25 µM (PARK7 [2]; crude compounds, 0.25 µM): 52.2%; inhibition at 0.5 µM (PARK7 [2]; [3]): 81%; inhibition at 1 µM (PARK7 [2]; crude compounds, 1 µM): 96%"
N#CN1CC[C@@H](C(=O)Nc2nc3c(s2)CN(C(=O)C2CN(S(=O)(=O)C4CC4)C2)CC3)C1 [Compound 174],91.8%,"inhibition at 0.25 µM (PARK7 [2]; crude compounds, 0.25 µM): 35%; inhibition at 0.5 µM (PARK7 [2]; [3]): 63.1%; inhibition at 1 µM (PARK7 [2]; crude compounds, 1 µM): 87.7%"
"N#CN1CC[C@@H](C(=O)Nc2nc3c(s2)CNCC3)C1 [cyanimide amine precursor, (R)-1-cyano-N-(4,5,6,7-tetrahydrothiazolo[5,4-c]pyridin-2-yl)pyrrolidine-3-carboxamide]",–,inhibition at 1 µM (PARK7 [1]; read-out: % inhibition in HTS): ~40%; inhibition at 0.25 µM (PARK7 [2]): 3%; inhibition at 0.5 µM (PARK7 [2]; read-out: % inhibition 0.5 μM): 20%
"(R)-1-Cyano-N-(5-(4-hydroxybenzoyl)-4,5,6,7-tetrahydrothiazolo[5,4-c]pyridin-2-yl)pyrrolidine-3-carboxamide [Compound 3]",–,"% Inhibition 0.25 µM (PARK7 [2]; pure compounds, 0.25 µM): 58.4%; % Inhibition 1 µM (PARK7 [2]; pure compounds, 1 µM): 90.1%; potency in FP assay compared to JYQ-88 (PARK7 [2]; pure compounds, 0.25 and 1 μM): slight improvement in potency compared to JYQ-88"
Cc1nn(-c2ccc(C(F)(F)F)cn2)c(C)c1CC(=O)N1CCc2nc(NC(=O)[C@@H]3CCN(C#N)C3)sc2C1 [compound 169],77.8%,–
N#CN1CC[C@@H](C(=O)Nc2nc3c(s2)CN(C(=O)Cc2cnn(-c4ccccc4)c2)CC3)C1 [compound 148],80.2%,–
N#CN1CC[C@@H](C(=O)Nc2nc3c(s2)CN(C(=O)CC2CCN(c4ccc(Cl)nn4)CC2)CC3)C1 [compound 371],–,inhibition at 1.25 µM (PARK7 [1]; FP reagent JYQ-107): 74.8%
N#CN1CC[C@@H](C(=O)Nc2nc3c(s2)CN(C(=O)Cc2csc(COc4ccc(Cl)cc4)n2)CC3)C1 [compound 13],75.4%,–
Cc1cc(OCC(=O)N2CCc3nc(NC(=O)[C@@H]4CCN(C#N)C4)sc3C2)ccc1C(C)C [compound 393],–,inhibition at 1.25 µM (PARK7 [1]; FP reagent JYQ-107): 80.3%
N#CN1CC[C@@H](C(=O)Nc2nc3c(s2)CN(C(=O)c2cc(-c4ccc(Cl)cc4)oc2C(F)(F)F)CC3)C1 [compound 49],70.8%,–
Cc1nc(-c2c[nH]c(C(=O)N3CCc4nc(NC(=O)[C@@H]5CCN(C#N)C5)sc4C3)c2)cs1 [compound 161],86.4%,–
CC1=NN(c2cccc(Br)c2)C(=O)C1CC(=O)N1CCc2nc(NC(=O)[C@@H]3CCN(C#N)C3)sc2C1 (stereo partly shown) [compound 364],–,inhibition at 1.25 µM (PARK7 [1]; FP reagent JYQ-107): 73%
N#CN1CC[C@@H](C(=O)Nc2nc3c(s2)CN(C(=O)CCc2cccnc2)CC3)C1 [compound 445],–,inhibition at 1.25 µM (PARK7 [1]; FP reagent JYQ-107): 62.7%
Cc1c(S(=O)(=O)N2CCC(C(=O)N3CCc4nc(NC(=O)[C@@H]5CCN(C#N)C5)sc4C3)CC2)cnn1C [compound 86],70.5%,–
N#CN1CC[C@@H](C(=O)Nc2nc3c(s2)CN(C(=O)CCCCBr)CC3)C1 [compound 410],–,inhibition at 1.25 µM (PARK7 [1]; FP reagent JYQ-107): 47.7%
N#CN1CC[C@@H](C(=O)Nc2nc3c(s2)CN(C(=O)c2ccc(CN4CCCCCC4)s2)CC3)C1 [compound 195],72.4%,–
N#CN1CC[C@@H](C(=O)Nc2nc3c(s2)CN(C(=O)c2cc(S(=O)(=O)Nc4cccc(F)c4)ccc2F)CC3)C1 [compound 354],–,inhibition at 1.25 µM (PARK7 [1]; FP reagent JYQ-107): 72.5%
CCCC(=O)N1CCc2nc(NC(=O)[C@@H]3CCN(C#N)C3)sc2C1 [compound 394],–,inhibition at 1.25 µM (PARK7 [1]; FP reagent JYQ-107): 70.5%
Cc1nc(COc2ccc(C(=O)N3CCc4nc(NC(=O)[C@@H]5CCN(C#N)C5)sc4C3)cc2)no1 [compound 192],84.8%,–
N#CN1CC[C@@H](C(=O)Nc2nc3c(s2)CN(C(=O)c2ccccc2CCc2ccccc2)CC3)C1 [compound 413],–,inhibition at 1.25 µM (PARK7 [1]; FP reagent JYQ-107): 79.7%

Molecule,inhibition at 1.25 µM (PARK7 [1]),other results
N#CN1CC[C@@H](C(=O)Nc2nc3c(s2)CN(C(=O)c2cccc(S(=O)(=O)Nc4ccc(Cl)cc4)c2)CC3)C1 [compound 50],86.7%,–
N#CN1CC[C@@H](C(=O)Nc2nc3c(s2)CN(C(=O)c2cnn(CC4CCCCO4)c2)CC3)C1 (stereo partly shown) [compound 90],81.3%,–
CC(C(=O)N1CCc2nc(NC(=O)[C@@H]3CCN(C#N)C3)sc2C1)n1nc(C(F)(F)F)cc1C1CC1 (stereo partly shown) [compound 143],64.1%,–
CC(=O)C(=O)N1CCc2nc(NC(=O)[C@@H]3CCN(C#N)C3)sc2C1 [compound 466],–,inhibition at 1.25 µM (PARK7 [1]; FP reagent JYQ-107): 58.5%
N#CN1CC[C@@H](C(=O)Nc2nc3c(s2)CN(C(=O)c2ccc4cc5ccccc5cc4c2)CC3)C1 [compound 455],–,inhibition at 1.25 µM (PARK7 [1]; FP reagent JYQ-107): 79.5%
N#CN1CC[C@@H](C(=O)Nc2nc3c(s2)CN(C(=O)c2ccc(-c4ncon4)cc2)CC3)C1 [compound 379],–,inhibition at 1.25 µM (PARK7 [1]; FP reagent JYQ-107): 75.2%
N#CN1CC[C@@H](C(=O)Nc2nc3c(s2)CN(C(=O)c2cc(-c4cccc(Cl)c4)no2)CC3)C1 [compound 245],10.9%,–
N#CN1CC[C@@H](C(=O)Nc2nc3c(s2)CN(C(=O)c2ccc(S(=O)(=O)NC4CC4)cc2)CC3)C1 [compound 48],79.8%,–
N#CN1CC[C@@H](C(=O)Nc2nc3c(s2)CN(C(=O)c2ccnn2C2CCC2)CC3)C1 [compound 232],76%,–
Cc1cc(C(=O)N2CCc3nc(NC(=O)[C@@H]4CCN(C#N)C4)sc3C2)c(C2CC2)s1 [compound 91],82.6%,–
Cc1ccc(CN2C(=O)CCC2C(=O)N2CCc3nc(NC(=O)[C@@H]4CCN(C#N)C4)sc3C2)cc1 (stereo partly shown) [compound 254],53.9%,–
CC(C)C(=O)N1CCc2nc(NC(=O)[C@@H]3CCN(C#N)C3)sc2C1 [compound 392],–,inhibition at 1.25 µM (PARK7 [1]; FP reagent JYQ-107): 63%
N#CN1CC[C@@H](C(=O)Nc2nc3c(s2)CN(C(=O)C2(c4ccccc4Cl)CCOCC2)CC3)C1 [compound 94],65.7%,–
N#CN1CC[C@@H](C(=O)Nc2nc3c(s2)CN(C(=O)c2ccc(N4NC(=O)CCC4=O)cc2)CC3)C1 [compound 125],85.7%,–
CC(=O)CCCCC(=O)N1CCc2nc(NC(=O)[C@@H]3CCN(C#N)C3)sc2C1 [compound 419],–,inhibition at 1.25 µM (PARK7 [1]; FP reagent JYQ-107): 74%
N#CN1CC[C@@H](C(=O)Nc2nc3c(s2)CN(C(=O)c2cccc(Oc4nccs4)c2)CC3)C1 [compound 351],–,inhibition at 1.25 µM (PARK7 [1]; FP reagent JYQ-107): 88.9%
N#CN1CC[C@@H](C(=O)Nc2nc3c(s2)CN(C(=O)C2(n4cnnn4)CCOCC2)CC3)C1 [compound 36],65.2%,–
Cc1cc(C(=O)N2CCc3nc(NC(=O)[C@@H]4CCN(C#N)C4)sc3C2)c(C)n1-c1cccnc1 [compound 213],67.7%,–
N#CN1CC[C@@H](C(=O)Nc2nc3c(s2)CN(C(=O)c2ccc(B(O)O)cc2)CC3)C1 [compound 407],–,inhibition at 1.25 µM (PARK7 [1]; FP reagent JYQ-107): 58.7%
N#CN1CC[C@@H](C(=O)Nc2nc3c(s2)CN(C(=O)Cc2ccc(NS(=O)(=O)c4c(Cl)cccc4Cl)cc2)CC3)C1 [compound 57],84.9%,–
N#CN1CC[C@@H](C(=O)Nc2nc3c(s2)CN(C(=O)C(=O)N2CCN(c4ccccc4)CC2)CC3)C1 [compound 177],78.6%,–

# Continued, in another order:
inhibition at 1.25 µM (PARK7 [1]),Molecule,other results
81.3%,CCn1nccc1-c1cc(C(=O)N2CCc3nc(NC(=O)[C@@H]4CCN(C#N)C4)sc3C2)no1 [compound 285],–
62.3%,Cc1onc(C(=O)N2CCc3nc(NC(=O)[C@@H]4CCN(C#N)C4)sc3C2)c1CN1CCOCC1 [compound 281],–
74.3%,N#CN1CC[C@@H](C(=O)Nc2nc3c(s2)CN(C(=O)C2CC=CCC2C(=O)N2CCOCC2)CC3)C1 (stereo partly shown) [compound 276],–
65.2%,CC1(C(=O)N2CCc3nc(NC(=O)[C@@H]4CCN(C#N)C4)sc3C2)CCCCN1C(=O)OCc1ccccc1 (stereo partly shown) [compound 283],–
65.8%,CCn1cc([C@@H]2OCCC[C@H]2C(=O)N2CCc3nc(NC(=O)[C@@H]4CCN(C#N)C4)sc3C2)cn1 [compound 318],–
78.1%,CCc1ccc(C(=O)N2CCC(C(=O)N3CCc4nc(NC(=O)[C@@H]5CCN(C#N)C5)sc4C3)CC2)o1 [compound 294],–
74.3%,Cc1oc(-c2ccsc2)nc1CC(=O)N1CCc2nc(NC(=O)[C@@H]3CCN(C#N)C3)sc2C1 [compound 343],–
78.6%,N#CN1CC[C@@H](C(=O)Nc2nc3c(s2)CN(C(=O)C2CCCN(S(=O)(=O)c4cccs4)C2)CC3)C1 (stereo partly shown) [compound 288],–
87.8%,Cc1cc(C)cc(N(CCC(=O)N2CCc3nc(NC(=O)[C@@H]4CCN(C#N)C4)sc3C2)S(=O)(=O)c2ccc(Cl)cc2)c1 [compound 299],–
80.2%,N#CN1CC[C@@H](C(=O)Nc2nc3c(s2)CN(C(=O)Cc2ccc(-n4cccc4)cc2)CC3)C1 [compound 309],–
76%,N#CN1CC[C@@H](C(=O)Nc2nc3c(s2)CN(C(=O)Cc2csc(N4CCCC4=O)n2)CC3)C1 [compound 306],–
64.2%,N#CN1CC[C@@H](C(=O)Nc2nc3c(s2)CN(C(=O)C2CCN2C2CCCC2)CC3)C1 (stereo partly shown) [compound 320],–
73.8%,N#CN1CC[C@@H](C(=O)Nc2nc3c(s2)CN(C(=O)c2cccnc2-n2cncn2)CC3)C1 [compound 292],–
70%,COc1ccccc1N1CC(C(=O)N2CCc3nc(NC(=O)[C@@H]4CCN(C#N)C4)sc3C2)CCC1=O (stereo partly shown) [compound 327],–
